In US20090257999A1, “Method of preventing contrast-induced nephropathy” (Inotek Pharmaceuticals Corporation, priority 2007, published 2009):

Legend:
[1] = test system: diabetic rats; assay: CIN model, Example 5: INO-1001 alone and with NAC in diabetic rats; assay type: in vivo, rat; details: diabetic rats + Iomeprol, NAC 30 mg/kg i.v., INO-1001 10 mg/kg ip, or both, at −30 min
Description: (§1) Male Wistar rats (150-200 g; Harlan Nossanr) were housed in a controlled environment and provided with standard rodent chow and water. Diabetes was induced after 12 h of fasting. The animals received a single 60 mg/kg intravenous (i.v.) injection of streptozotocin (Sigma, St. Louis, Mo.) in 10 mM sodium citrate buffer, pH 4.5 (see figure). Control non-diabetic animals were fasted and received citrate buffer alone. After 24 hours, animals with blood glucose levels greater than 250 mg/dl were considered diabetic. The diabetic state was confirmed by evaluating the blood glucose levels. Ten days following the induction of diabetes rats were anesthetized with 90 mg/kg ketamine i.m. and 10 mg/kg xylazine i.m. and were treated with the contrast agent iomeprol (10 mL/kg injected via the lateral tail vein) or with 0.9% normal saline. The contrast agent used was the low osmolar non-ionic monomer iomeprol (Iomeron, 400 mgI mL-1; Bracco SpA, Milan, Italy) with an osmolality of 726±34 mosmol/kg H2O.
GROUP 1: Diabetic rats only+Placebo (i.v.). GROUP 2: Diabetic rats+Iomeprol+Placebo (i.v.) given at −30 min. GROUP 3: Diabetic rats+Iomeprol+NAC (30 mg/kg, i.v.) given at −30 min. GROUP 4: Diabetic rats+Iomeprol+INO-1001 (10 mg/kg, ip) given at −30 min. GROUP 5: Diabetic rats+Iomeprol+NAC (30 mg/kg, i.v.)+INO-1001 (10 mg/kg, ip) given at −30 min.
(§2) Blood samples were collected via the lateral tail vein into S1/3 tubes containing serum gel at 24 hours. The samples were centrifuged (6000 r.p.m. for 3 min) to separate plasma. All plasma samples were analyzed for biochemical parameters within 24 hours after collection. Plasma and urine concentrations of creatinine were measured as indicators of impaired glomerular function. Creatinine clearance was calculated using the following formula (=UV/P), where U refers to Creatinine concentration in urine, V to urine volume/min and P to serum creatinine. Plasma and urine concentrations of NGAL (neutrophil gelatinase associated lipocalin) levels and urine αGST (alpha glutathione S-transferase) and NGAL levels were evaluated.
Protein concentration in urine was determined by Bio-Rad DC Protein Assay (BioRad, Richmond Calif.). The Bio-Rad DC protein assay is a colorimetric assay for protein concentration. The reaction is similar to the well-documented Lowry assay (Lowry et al., Protein measurement with the Folin phenol reagent, J Biol Chem 193, 265-275 (1951). The Bio-Rad DC protein assay requires only a single 15-minute incubation, and absorbance is stable for a least 2 hours. The amount of protein is expressed in mg/ml.

[2] = test system: diabetic rats; assay: CIN model, Example 3: M40403 alone and with NAC in diabetic rats; assay type: in vivo, rat; details: diabetic rats + Iomeprol, 24 hours; M40403 0.5 mg/kg i.v. alone or + NAC 3 mg/kg i.v., at −30 min
Description: as §1, with “12 hours” for “12 h”
as §2, with “gel at 0 and 24 hours.” for “gel at 24 hours.”, “of NGAL levels were” for “of NGAL (neutrophil gelatinase associated lipocalin) levels and urine αGST (alpha glutathione S-transferase) and NGAL levels were”

[3] = Iomeron, 400 mgI mL-1; cited from earlier work

O=c1[nH]cnc2c1ncn2[C@@H]1O[C@H](CO)[C@@H](O)[C@H]1O [INO-1001]
plasma creatinine ([1]; 24 h): significant reductions | plasma NGAL concentration ([1]; 24 hours): significant reductions | total protein concentration in the urine ([1]; 24 hours): significant reductions | urine NGAL concentration ([1]; 24 hours): significant reductions | urine αGST ([1]; 24 hours): significant reductions

[Cl-].[Cl-].[Mn+2].c1cc2nc(c1)CN[C@@H]1CCCC[C@H]1NCCN[C@@H]1CCCC[C@H]1NC2 [Metalloporphyrin M40403]
plasma NGAL concentration [2]: significant reduction | plasma Na+ [2]: significant reductions | plasma concentrations of K+ [2]: significant increase | plasma creatinine [2]: significant reductions | total protein concentrations in the urine [2]: significantly reduced | urine NGAL concentration [2]: significant reduction

CN(C(=O)CO)c1c(I)c(C(=O)NCC(O)CO)c(I)c(C(=O)NCC(O)CO)c1I (stereo not drawn) [iomeprol]
osmolality [3]: 726±34 mosmol/kg H2O
